Measurements: publication PMC8597046, “Use of Mixture Dosing and Nonlinear Mixed Effect Modeling of Eight Environmental Contaminants in Rabbits to Improve Extrapolation Value of Toxicokinetic Data” (Environmental Health Perspectives, 2021)

How the values were obtained:
[1] = TK assay, intravenous mixture dosing: serum concentrations and noncompartmental analysis (sparse data); details: IV mixture dosing, NCA, n=12
Protocol: (§1) The experiment was carried out on thirty 10-wk old female New Zealand white rabbits (INRA 1777 line) weighing 2.37±0.14kg . […] Blood samples were taken at the designated time points post IV and oral administration: 15 min, 30 min, 1 h, 2 h, 4 h, 8 h, 12 h, 24 h, 3 d, 7 d, and 28 d from groups of 3 or 6 rabbits at each sampling time. Each rabbit was sampled 3 times and 3 rabbits were sampled at each sampling time, except at 30 min post administration, when 6 samples were collected to provide a sufficient blood volume for assaying the compounds. The doses and assay time points were selected to allow the calculation of TK parameters (Table 1) based on preliminary TK data. Residual concentrations of the compounds, and their possible evolution over time, were determined by sampling six entirely untreated rabbits during the TK study on the day of drug administrations, then 14 d and 28 d later.
(§2) The volume administered was adjusted to the animal’s body weight (BW) recorded the day before.
(§3) Intravenous administrations were performed via an indwelling catheter (22G Terumo, 0.9×25mm ) just after its insertion into an ear vein. […] For oral administrations, the mixture of all compounds ( 4mL/kg ) was deposited directly in the mouth of rabbits using a catheter (22G BD Insyte 22G, 0.9×25mm ). Prior to the study, the rabbits had been trained to gradually swallow water and then corn oil.
(§4) Blood samples were collected from the auricular artery using a 20 G needle ( 0.9×25mm ) and a dry tube. The first two blood samples were 8–10mL in volume, whereas a large volume (about 20mL ) was obtained antemortem immediately after electrical stunning (95LX rabbit stunner; Burdis), followed by exsanguination.
(§5) Serum concentration-time profiles of the different compounds were first analyzed using a noncompartmental approach (NCA) involving a sparse data option. Sparse data methodology consists of calculating TK parameters based on the mean profile of all the subjects in the dataset and is appropriate when a rich data series cannot be obtained, as in the present experiment ([FDA 1999]). The area under the concentration time curve ( AUC0−tlast ) and the area under the first moment curve ( AUMC0−tlast ) from dosing time ( t=0 ) to the time of the last measurable concentration were calculated using the linear trapezoidal rule after IV and oral dosing. The area under the serum concentration time curve from dosing time to infinity ( AUC0−inf ) was obtained by adding to AUC0−tlast the area extrapolated from the time of the last measurable concentration to infinity by dividing the last quantifiable serum concentration by the slope of the terminal phase ( λZ ), as estimated by linear regression using the best fit option of Phoenix®.
(§6) The clearance (CL) and apparent clearance (CL_F) were respectively estimated after IV and oral administrations by dividing the administered dose by the AUC0−inf calculated for each analyte.
(§7) The terminal half-life (HL) was estimated with Equation 1: (1) HL=0.69315/λZ where λz is the slope of the terminal phase.
The mean residence time (MRT) was estimated using Equation 3: (3) MRT=AUMCiv0−tlast /AUCiv0−tlast , where AUCMiv0−tlast and AUCiv0−tlast are the values of AUMC0−tlast and AUC0−tlast obtained after IV dosing.
The steady-state volume of distribution ( VSS ) was estimated using Equation 4: (4) VSS=CL×MRT, with CL and MRT as defined above.

[2] = TK assay, oral mixture dosing: serum concentrations and noncompartmental analysis (sparse data); details: oral mixture dosing, NCA, n=12
Protocol: as §1, §2, §3, §4, §5, §6, §7
The oral bioavailability (F) was estimated using Equation 2: (2) F=AUCvo0−tlast×Doseiv/AUCiv0−tlast×Dosevo, where AUCiv0−tlast and AUCvo0-tlast are the values of AUC0−tlast obtained after IV and oral dosing, respectively, and Doseiv and Dosevo are the IV and oral doses.

[3] = Estimation of loading and daily maintenance doses and NLME model simulations; set-up: species or system female rabbits; details: oral; for Computed maintenance dose: daily; for Computed maintenance dose / Computed loading dose: scaled to the targeted CSS of Table 6
Protocol: The ultimate goal of this TK investigation was to compute a dosage regimen that allowed targeted steady-state serum concentrations to be attained rapidly for a planned TK/TD trial on the reprotoxic effect of a mixture of environmental contaminants in female rabbits. […] With that in mind, the loading and the daily maintenance doses of each compound were evaluated using Equations 12 and 13, respectively.
This risk was also the reason why the NLME model was employed to simulate the time development of the amounts of compounds in the central and peripheral compartments following administration of the daily maintenance dose of each compound over the same duration.
The loading and maintenance doses computed to ensure a nominal CSS of 1 ng/mL were scaled to determine the doses to be administrated by oral route to female rabbits to maintain the targeted CSS .

[4] = Nonlinear mixed effect (NLME) compartmental modeling of merged IV and oral serum concentrations
From the text: A nonlinear mixed effect (NLME) modeling approach was used to analyze simultaneously all data obtained from the different rabbits after both IV and oral administrations and to provide robust estimates of the typical TK parameters.
The primary parameters of the model, namely the volume of distribution of the central compartment (V1), the first-order rate constants ( K10 , K12 , K21 , and Kabs plus K13 , K31 for PFOA) and the bioavailability (F) and their associated precisions [standard error (SE)] were estimated by minimizing an objective function value (OFV) expressed as minus twice the log of the likelihood estimation ( −2LL ). […] Marginal likelihood was approximated by using the Laplacian engine by default and, when this engine was unable to determine the SE of the estimate, the Quasi-Random Parametric Expectation Maximization (QRPEM) was selected.
Between subject variability (BSV) of the parameters was measured using the exponential model θparameter_i=θtv_parameter×exp (ηi), where θparameter_i is the parameter estimated for the ith individual, θtv_parameter is the typical population value of the parameter, and ηi is the deviation associated with the ith individual from the corresponding value of the parameter at the population level.
The distribution of ηi was assumed to be normal with a mean of 0 and a variance ω² . BSV was reported as a coefficient of variation (CV) in the original scale CV(%)=100× exp (ω^2)−1 .
The residual variance was modeled using a combined additive and proportional error model Cobsij=Cpredij(1 + ε1ij) + ε2ij, where Cobsij and Cpredij are respectively the jth observed and predicted concentrations for the ith individual, and ε1ij and ε2ij are the multiplicative and additive residual errors.
Secondary parameters were calculated from the population primary parameters.
The clearance values (CL) were estimated using Equation 5: (5) CL=K10×V1, where V1 is the volume of the central compartment and K10 is the elimination rate constant from the central compartment.
The volume of the peripheral compartment (V2) was estimated with Equation 6: (6) V2=V1×(K12/K21), where K12 and K21 are the distribution rate constants between the central and the peripheral compartments.
The clearance of distribution (Q) was estimated using Equation 7: (7) Q=K12×V1, with […] and K12 as defined above.
The volume of distribution associated with the terminal phase was estimated with Equation 10: (10) VZ=CL/λZ, with λZ as defined above.
The AUC was computed as a secondary parameter using Equation 11: (11) AUC=Dose/CL.
The terminal half-life was estimated with Equation 1, as previously described.

[5] = rodents; ref Chang et al. 2012; cited from earlier work
[6] = Chronic exposure: daily oral mixture for 17 wk, steady-state serum concentrations; details: serum, mean±SD, n=16, after 17 weeks of oral mixture; MEHP after DEHP dosing
Protocol: The objective of this preliminary experiment was to check the ability of our approach to determine the loading and maintenance doses of the eight compounds to be administered simultaneously by oral route to reproduce in female rabbits targeted serum concentrations. The experiment was carried out on thirty-two 2-wk old female New Zealand white rabbits (INRA 1777 line) randomly allocated to a treatment and control groups of 16 rabbits weighing 309±45g and 298±62g , respectively. The treated rabbits were orally administrated a mixture of the eight compounds at a dosage corresponding to the sum of the loading and daily maintenance doses followed by daily administrations of the maintenance dose for 17 wk (see the “Estimation of the doses” section). The control group was orally administrated the vehicle for the same duration.
The volume of the maintenance dosing solution ( 1mL/kg ) was weekly adjusted to the mean BW estimated from the known pattern of growth of the INRA 1777 rabbit line. Oral dosing and antemortem blood sampling were performed as previously described.
Blood samples were left to clot for about 20–30 min at ambient temperature and centrifuged for 20 min at 3,000×g at 25°C. The separated serum was stored in glass tubes at −20°C until assayed.

Structure (SMILES): O=C(O)[C@H]1O[C@@H](Oc2ccc(S(=O)(=O)c3ccc(O)cc3)cc2)[C@H](O)[C@@H](O)[C@@H]1O [BPSG, bisphenol S glucuronide]
- MRT [1]: 3.16 h
- AUC0−inf ([1]; serum): 5.18 µM·h
- Cmax ([1]; serum, doses in Table 2 r3, BPSG after BPS dosing): 5.78 µM
- half-life ([1]; terminal): 3.80 h
- MRT ([2]; MEHP after oral DEHP): 7.66 h
- Tmax ([2]; MEHP after oral DEHP): 0.27 h
- AUC0−inf ([2]; serum, MEHP after oral DEHP): 15.8 µM·h
- Cmax ([2]; serum, doses in Table 3 r3, MEHP measured after oral DEHP, BPSG after BPS): 6.91 µM
- half-life ([2]; terminal, MEHP after oral DEHP): 4.23 h

Structure (SMILES): CCCCC(CC)COC(=O)c1ccccc1C(=O)OCC(CC)CCCC (stereo not shown) [DEHP, di(2-ethylhexyl)phthalate]
- Computed maintenance dose [3]: 0.78 mg/kg
- Computed loading dose [3]: 0.264 mg/kg
- Daily maintenance dose ([3]; to maintain serum concentration of 1 ng/mL, daily CL×Css/F, DEHP dose for MEHP in serum): 0.013 mg/kg
- Loading dose ([3]; to rapidly attain serum concentration of 1 ng/mL, Vss×Css/F, DEHP dose for MEHP in serum): 0.0044 mg/kg

Structure (SMILES): O=S(=O)(O)C(F)(F)C(F)(F)C(F)(F)C(F)(F)C(F)(F)C(F)(F)C(F)(F)C(F)(F)F [PFOS, perfluorooctane sulfonate]
- Oral bioavailability (F) ([4]; NLME model): 100%
- Clearance ([4]; population secondary parameter, mean): lower than 0.01 L/kg/h
- Computed maintenance dose [3]: 0.0013 mg/kg
- Computed loading dose [3]: 0.06 mg/kg
- Intestinal absorption [5]: 117%
- Observed CSS [6]: 154 ± 25 ng/mL
